# Peptide text beside a SMILES is read from it. * marks the point of attachment. NHtBu = CC(C)(C)N*
row,SMILES,logP
1,O=C(O)Cn1nc2ccccc2n1,-1.64
2,Cc1nnc(SCC2=C(C(=O)O)N3C(=O)[C@@H](NC(=O)Cn4cnnn4)[C@H]3SC2)s1,-0.58
3,CCCCCC(=O)OCC(=O)C1(O)CCC2C3CCC4=CC(=O)CCC4(C)C3C(O)CC21C (stereo not given),4.48
4,CCCCCCn1cc(C)c(=O)[nH]c1=O,1.93
5,COC(C)=O,0.18
6,NS(=O)(=O)c1ccc(SCCO)s1,0.38
7,CCOC(=O)C(=Cc1ccccc1F)C(=O)OCC,3.04
8,COc1ccc(-c2nc3cnccc3n2C)c(OC)c1,2.66
9,CCCCCNc1nc(NC)nc(SC(F)F)n1,4.42
10,Cc1ccc(C(=O)O)c(O)c1,2.99
11,CN(C)C(N(C)C)=S(I)c1cc(Cl)ccc1Cl (stereo not given),0.05
12,Cc1ccccc1OC(=O)c1ccc(N)cc1O,3.14
13,CCOC(=O)C(=Cc1cccc(OCC)c1)C(C)=O,2.71
14,NS(=O)(=O)c1ccc(O)cc1,0.06
15,CCCCCCCCOc1cccc(NC(=O)OCCN2CCCCC2)c1,5.82
16,c1ccc2c(c1)nnc1ccccc12,2.4
17,Cn1c(N)nc2ccccc21,0.95
18,NC(=O)c1ccc(I)cc1,1.99
19,CC(=O)Nc1ccc(N(C)C)cc1,1
20,O=[N+]([O-])c1ncn(CC(O)CN2CC2)n1 (stereo not given),-0.72
21,CCCN(CCC)CC(=O)OCn1ncc2c(=O)[nH]cnc21,1.27
22,Clc1cccc(Cl)n1,2.15
23,CC(=S)Nc1ccccc1,1.71

row,SMILES,logP
1,c1ccc2c(c1)cnn2C12CC3CC(CC(C3)C1)C2,4.33
2,COc1ccccc1S(I)=C(N(C)C)N(C)C (stereo not given),-0.52
3,Cc1cc(Cl)cc(Cl)c1NC1=NCCN1,2.38
4,Nc1nc(=O)c2ccccc2o1,0.27
5,C=CCN1CCc2nc(N)sc2CC1,1.48
6,CCOP(=S)(OCC)Oc1nc(Cl)n(C(C)C)n1,3.82
7,Nc1nc2[nH]cnc2c(=O)[nH]1,-0.91
8,CC1=C(O)OC2CC(C)C3C=CC(=O)C3(C)C(O)C12 (stereo not given),1.13
9,O=[N+]([O-])c1cccc2c1ccc[n+]2[O-],0.49
10,C=CC(=O)OCCO,-0.21
11,CCCCC(CC)CN (stereo not given),2.82
12,CCOC(=O)C(=Cc1ccc(OC)cc1OC)C(C)=O,2.41
13,O=C(CI)NC(CO)C(O)c1ccc([N+](=O)[O-])cc1 (stereo not given),1.03
14,Cc1cc(Cl)ccc1NC1=NCCN1,1.8
15,NC(Cc1ccc(O)c(O)c1)C(=O)OCc1cccc(C(F)(F)F)c1 (stereo not given),2.29
16,COc1ccc2c(c1)N(CCCN(C)C)c1ccccc1S2,4.9
17,CC(F)F,0.75
18,COc1ccc(Cl)cc1,2.78
19,OCCN1CCCCC1,0.96
20,CCCCNc1nc(NC)nc(SC(F)F)n1,3.7
21,CNC(=O)Oc1ccc(Cl)c(Cl)c1,2.8
22,CCc1ccccc1O,2.47
23,COc1cnc2ccccc2n1,2.31

row,SMILES,logP
1,C/C(=N/Nc1nc(C)cc(C)n1)c1ccccc1C,2.98
2,CNC(=O)Oc1ccc([N+](=O)[O-])cc1,1.47
3,CCCCN(CCCC)N=O,2.63
4,C1=CC=CCC=C1,2.63
5,Cc1ccc(-c2cc3ccccn3c2)cc1,4.96
6,O=Cc1ccc2c(c1)OCO2,1.05
7,CCN(CCO)c1ccccc1,2.1
8,BrC=CBr,1.76
9,CN(C)C(N(C)C)=S(I)c1cccc(Br)c1 (stereo not given),0.01
10,CC1=C(N2CC2)C(=O)C(CCOC(N)=O)=C(N2CC2)C1=O,0.16
11,O=C(O)c1ccc2oc3ccccc3c(=O)c2c1,3.12
12,c1ccc2c(c1)ccc1ccccc12,4.46
13,NNC(=O)c1ccnc([N+](=O)[O-])c1,-0.76
14,COc1ccc(C(c2ccc(OC)cc2)C(F)(F)F)cc1,4.76
15,O=C(NC(CO)C(O)c1ccc([N+](=O)[O-])cc1)C(Cl)(Cl)Cl (stereo not given),1.97
16,NC(=O)c1cccc(C(N)=O)c1,-0.21
17,O=c1[nH]c2ccccc2n1C1CCN(CCCC(c2ccc(F)cc2)c2ccc(F)cc2)CC1,6.3
18,CCCCCCCOc1cccc(NC(=O)OCCN2CCCCC2)c1,5.53
19,CCC1(C(C)CC(C)O)C(=O)NC(=O)NC1=O (stereo not given),0.35
20,CCN(CC)C(C)C(=O)OCn1ncc2c(=O)[nH]cnc21 (stereo not given),0.72
21,CCC=O,0.59
22,CCC(C)(C)C(=O)OC1CC(C)C=C2C=CC(C)C(CCC(O)CC(O)CC(=O)O)C21 (stereo not given),4.47
23,O=C(c1ccccc1)c1cccc(NS(=O)(=O)C(F)F)c1,2.86

row,SMILES,logP
1,CCN(CC)CC(F)(F)F,1.88
2,Cc1cc(Cl)c(N=C2NCCN2)c(Cl)c1,1.92
3,Cc1ccc(/N=C/N(C)/C=N/c2ccc(C)cc2C)c(C)c1,5.5
4,CC(C)CCOC(=O)c1cc(O)c(O)c(O)c1,2.8
5,NC(=O)Cn1ccnc1[N+](=O)[O-],-1.22
6,CC(=O)NC(C)C(=O)NCC(=O)NC(C)C(=O)NC(C)(C)C (stereo not drawn) (Ac-Ala-Gly-Ala-NHtBu; configuration not given here),-0.6
7,O=C(CN1CCCCC1)Nc1ccc(F)cc1,2.7
8,CNCC(=O)O,-2.78
9,CCCN(CCC)N=O,1.36
10,Clc1cc(Cl)c(-c2cccc(Cl)c2Cl)cc1Cl,6.67
11,Oc1ccc(C2CCCCC2)cc1,4.22
12,CCC1=C(N2CC2)C(=O)C(C)=C(N2CC2)C1=O,1.35
13,CC(=O)c1ccc(C(=O)OCCN(C)C)cc1,1.57
14,COC(F)(F)C(Cl)Cl,2.21
15,O=CNc1ccccc1,1.15
16,CCOc1ccc(N)cc1,1.24
17,CCCC(C)C1(CC)C(=O)N=C(S)NC1=O (stereo not given),2.85
18,COc1cc(CCN)cc(OC)c1OC,0.78
19,COc1ccnc2c([N+](=O)[O-])cccc12,1.92
20,CCN(CC)CC(O)c1ccccc1 (stereo not given),2.02
21,Cc1ccc2[nH]c(=O)[nH]c(=O)c2c1,0.55
22,CNc1nc(NC(C)C)nc(SC(F)F)n1,3.27
23,OCC1OC(OCc2ccccc2)C(O)C(O)C1O (stereo not given),-0.7

row,SMILES,logP
1,Cc1cc(C#N)ccn1,0.81
2,CC(C)C(C(=O)OC(C#N)c1cccc(Oc2ccccc2)c1)c1ccc(Cl)cc1 (stereo not given),6.2
3,CC(=O)OCC(=O)[C@@]1(O)[C@@H](C)C[C@H]2[C@@H]3CCC4=CC(=O)C=C[C@]4(C)[C@@]3(F)[C@@H](O)C[C@@]21C,2.77
4,NC1=C(Cl)C(=O)c2ccccc2C1=O,2.12
5,COc1cccc(COC(C)=O)c1,2.02
6,C=CCCCCCC,4.57
7,O=C(O)CCCC(=O)O,-0.29
8,O=S(=O)(CF)Nc1ccc(Cl)cc1,2.25
9,N#CC(C#N)=NNc1ccccc1,2.67
10,CCC(=O)O[C@]1(c2ccccc2)CCN(C)C[C@@H]1C,2.83
11,Oc1ccc(N=C=S)cc1,2.74
12,Cc1ncc([N+](=O)[O-])n1CCNC(=O)OC(C)C,0.88
13,COc1ccc(CC#N)cc1OC,1.15
14,CCCC(=O)OCn1cnc(CSCCNC(=NC#N)NC)c1C,1.6
15,O=[N+]([O-])c1nccn1CCO,-0.47
16,O=NN(CCCl)C(=O)NC1CC2CCC1C2 (stereo not given),2.98
17,CC(C)(C)C,3.11
18,c1cscn1,0.44
19,CSc1ccccc1N,1.2
20,CC(=O)OC[C@H]1O[C@H](OC(C)=O)[C@H](OC(C)=O)[C@@H](OC(C)=O)[C@@H]1OC(C)=O,0.63
21,CC(C)NCC(O)COc1ccccc1 (stereo not given),1.72
22,O=C(O)COc1ccc(F)cc1,1.64
23,Nc1cc([N+](=O)[O-])cc([N+](=O)[O-])c1,1.89

row,SMILES,logP
1,COc1ccc(-c2cc3cnccc3[nH]2)c(OC)c1,3.5
2,C=CC(N)=O,-0.67
3,O=C(O)c1ccc(F)cc1,2.07
4,CC(=O)c1ccncc1,0.48
5,O=C(NP(=O)(N1CC1)N1CC1)c1ccc(Cl)cc1,0.97
6,Nc1nncs1,-0.57
7,CC12CCC(=O)C=C1CCC1C3CCC(O)(C(=O)CO)C3(C)CC(O)C12F (stereo not given),1.67
8,O=C(O)C(c1ccccc1)c1ccccc1,3.09
9,CCCCC(=O)OC,1.96
10,C1=C(c2ccccc2)CCCC1,4.53
11,COc1ccc(S(N)(=O)=O)cc1C(=O)NCC1CCCN1Cc1ccc(F)cc1 (stereo not given),2.46
12,NC(=O)c1ccc(Br)cc1,1.76
13,NNC(=O)c1ccc(Cl)cc1,1.18
14,Clc1ccc(Cl)nc1,2.4
15,C=CCc1ccccc1,3.23
16,COc1ccc2c(c1)nc(N)n2C,0.87
17,CCCOC(=O)c1ccccc1C(=O)OCCC,3.27
18,O=C(O)c1cc2ccccc2[nH]1,2.31
19,CC(=O)NC(C)(C)C(N)=O,-0.87
20,CCC1CCCCN1C(=O)COC(=O)c1ccccc1 (stereo not given),2.62
21,COC(=O)NS(=O)(=O)c1ccc(N)cc1,-0.27
22,c1ncc2nc[nH]c2n1,-0.37
23,NC(=O)C(F)(F)F,0.12

row,SMILES,logP
1,FCC1CO1 (stereo not given),-0.16
2,Oc1c(Cl)cc(Cl)c(Cl)c1Cc1c(O)c(Cl)cc(Cl)c1Cl,7.54
3,c1cnn(C23CC4CC(CC(C4)C2)C3)c1,3.05
4,O=C(NC(CO)C(O)c1ccc(I)cc1)C(Cl)Cl (stereo not given),2.22
5,CCN(CC)CCSC(=NO)c1nc(-c2cccc3ccccc23)no1,3.87
6,CCCCCN(C)/N=N/c1ccc(C(N)=O)cc1,3.18
7,CCCOC1OC(CO)C(O)C(O)C1O (stereo not given),-1.66
8,CC(=O)OCC(=O)[C@H]1CC[C@H]2[C@@H]3CCC4=CC(=O)CC[C@]4(C)[C@H]3CC[C@]12C,3.08
9,NC(=S)c1ccccc1N,0.99
10,CCC(=O)N(C)C,-0.11
11,CCCCCCOc1cccc(NC(=O)OCCN2CCCCC2)c1,5.51
12,c1ccc(-c2ccncc2)cc1,2.59
13,Nc1ccc(S(=O)(=O)Nc2nccs2)cc1,0.05
14,CCCCOC(=O)NCC(C)c1ncc([N+](=O)[O-])[nH]1 (stereo not given),1.22
15,O=[N+]([O-])c1ccc(C=Cc2ncc[nH]2)o1,1.32
16,Oc1cccc(Br)c1,2.63
17,CCC1(CC)C(=O)NC(=O)NC1=O,0.65
18,COc1ccc(OCC(=O)NNC(C)C)cc1,1.21
19,COc1ccc(OC(=O)N(C)C)cc1,1.53
20,CCOC(=O)Cc1ccccc1,2.28
21,Cn1c(CO)cnc1[N+](=O)[O-],-0.35
22,CN(C)CCOC(=O)c1ccc(C#N)cc1,1.43

# Source: the OPERA property sets (Mansouri et al. 2018)
